Results reported in patent US10865203B2, “Ligands selective to alpha 6 subunit-containing GABAA receptors and their methods of use” (UWM Research Foundation, Inc., priority 2015, dated 2020).
“Also recorded” adds a separate entry of the source. Where two headings read alike, the source gives them in different places.

Columns and labels:
[1] = tested on: α1,4,6β3δ receptors; test: Electrophysiology in Xenopus oocytes, delta-containing receptors; assay type: cell-based, rat
Method: Mature female Xenopus laevis (Nasco, Fort Atkinson, Wis., USA) were anaesthetized in a bath of ice-cold 0.17% Tricain (Ethyl-m-aminobenzoat, Sigma-Aldrich, St. Louis, Mo., USA) before decapitation and transfer of the frog's ovary to ND96 medium (96 mM NaCl, 2 mM KCl, 1 mM MgCl2, 5 mM HEPES; pH 7.5). Following incubation in 1 mg/mL collagenase (Sigma-Aldrich, St. Louis, Mo., USA) for 30 min, stage 5 to 6 oocytes were singled out of the ovary and defolliculated using a platinum wire loop. Oocytes were stored and incubated at 18° C. in NDE medium (96 mM NaCl, 2 mM KCl, 1 mM MgCl2, 5 mM HEPES, 1.8 mM CaCl2; pH 7.5) that was supplemented with 100 U per mL-1 penicillin, 100 μg per mL-1 streptomycin and 2.5 mM pyruvate. Oocytes were injected with an aqueous solution of mRNA. A total of 2.5 ng of mRNA per oocyte was injected. Subunit ratio was 1:1:5 for αxβγ2 (x=1, 2, 3, 5) and 3:1:5 for α4/6β3γ2 and αβδ receptors. Injected oocytes were incubated for at least 36 h before electrophysiological recordings. Oocytes were placed on a nylon-grid in a bath of NDE medium. For current measurements, the oocytes were impaled with two microelectrodes (2-3MΩ), which were filled with 2 M KCl. The oocytes were constantly washed by a flow of 6 mL per min-1 NDE that could be switched to NDE containing GABA and/or drugs. […] All recordings were performed at room temperature at a holding potential of −60 mV using a Warner OC-725C TEV (Warner Instrument, Hamden, Conn., USA) or a Dagan CA-1B Oocyte Clamp or a Dagan TEV-200A TEV (Dagan Corporation, Mineapolis, Minn., USA). Data were digitized using a Digidata 1322A or 1550 data acquisition system (Axon Instruments, Union City, Calif., USA), recorded using Clampex 10.5 software (Molecular Devices, Sunnyvale, Calif., USA), and analyzed using Clampfit 10.5 and GraphPad Prism 6.0 (La Jolla, Calif., USA) software. Concentration-response data were fitted using the Hill equation. Data are given as mean±SEM from at least three oocytes of two batches.
(§1) For selected test compounds full dose response curves were recorded in α1-6β3γ2 receptors. For selected compounds, dose response curves in additional receptor subtypes (α1, 4, 6β3δ, α6β1, 2γ2, α1-6β3) were also obtained. For a wider panel of compounds, a two point screening pharmacology was obtained at 1 and 10 μM compound concentrations.

[2] = Microsomal stability assay, human liver microsomes; assay type: in vitro ADME; conditions: for % left after 1 hr. (HLM) / half-life at 10 μM / Half-life (min) (HLM): 10 μM test compound, 0.5 mg/mL protein, 37° C.; for stability in Human liver microsomes: Table 2; for half-life at 10 μM: human, liver microsomes, pH 7.4, read-out: Half-life (min) (HLM)
Procedure, shortened: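 Test compound at 10 μM was preincubated 5 min at 37 °C in phosphate buffer pH 7.4 with NADPH regenerating system, then started with human or mouse liver microsomes at 0.5 mg/mL protein. Samples were taken at 0–60 min and quenched in cold acetonitrile with internal standard. Slope k came from ln peak-area ratio versus time, three repeats in duplicate.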

[3] = biological target: T1, α6β3γ2 receptor (Rattus norvegicus, UniProt P30191+P63079); test: Electrophysiology in Xenopus oocytes, modulation of GABA currents; assay type: cell-based; conditions: for Emax: EC3-6 GABA currents, read-out: maximum efficacy, enhancement of the reference current; for selectivity for α6β3γ2 over other αxβ3γ2 receptors: modulation of GABA EC3 currents
T1 construct: expressed in transfected cells; host or cells: Xenopus laevis oocytes injected with subunit mRNA (3:1:5)
Method: Mature female Xenopus laevis (Nasco, Fort Atkinson, Wis., USA) were anaesthetized in a bath of ice-cold 0.17% Tricain (Ethyl-m-aminobenzoat, Sigma-Aldrich, St. Louis, Mo., USA) before decapitation and transfer of the frog's ovary to ND96 medium (96 mM NaCl, 2 mM KCl, 1 mM MgCl2, 5 mM HEPES; pH 7.5). Following incubation in 1 mg/mL collagenase (Sigma-Aldrich, St. Louis, Mo., USA) for 30 min, stage 5 to 6 oocytes were singled out of the ovary and defolliculated using a platinum wire loop. Oocytes were stored and incubated at 18° C. in NDE medium (96 mM NaCl, 2 mM KCl, 1 mM MgCl2, 5 mM HEPES, 1.8 mM CaCl2; pH 7.5) that was supplemented with 100 U per mL-1 penicillin, 100 μg per mL-1 streptomycin and 2.5 mM pyruvate. Oocytes were injected with an aqueous solution of mRNA. A total of 2.5 ng of mRNA per oocyte was injected. Subunit ratio was 1:1:5 for αxβγ2 (x=1, 2, 3, 5) and 3:1:5 for α4/6β3γ2 and αβδ receptors. Injected oocytes were incubated for at least 36 h before electrophysiological recordings. Oocytes were placed on a nylon-grid in a bath of NDE medium. For current measurements, the oocytes were impaled with two microelectrodes (2-3MΩ), which were filled with 2 M KCl. The oocytes were constantly washed by a flow of 6 mL per min-1 NDE that could be switched to NDE containing GABA and/or drugs. Drugs were diluted into NDE from DMSO solutions resulting in a final concentration of 0.1% DMSO. […] To test for modulation of GABA induced currents by compounds, a GABA concentration that was titrated to trigger 3-5% of the respective maximum GABA-elicited current of the individual oocyte (EC3-5) was applied to the cell together with various concentrations of tested compounds. All recordings were performed at room temperature at a holding potential of −60 mV using a Warner OC-725C TEV (Warner Instrument, Hamden, Conn., USA) or a Dagan CA-1B Oocyte Clamp or a Dagan TEV-200A TEV (Dagan Corporation, Mineapolis, Minn., USA). Data were digitized using a Digidata 1322A or 1550 data acquisition system (Axon Instruments, Union City, Calif., USA), recorded using Clampex 10.5 software (Molecular Devices, Sunnyvale, Calif., USA), and analyzed using Clampfit 10.5 and GraphPad Prism 6.0 (La Jolla, Calif., USA) software. Concentration-response data were fitted using the Hill equation. Data are given as mean±SEM from at least three oocytes of two batches.
as §1

T1 sequence (P30191 20-453): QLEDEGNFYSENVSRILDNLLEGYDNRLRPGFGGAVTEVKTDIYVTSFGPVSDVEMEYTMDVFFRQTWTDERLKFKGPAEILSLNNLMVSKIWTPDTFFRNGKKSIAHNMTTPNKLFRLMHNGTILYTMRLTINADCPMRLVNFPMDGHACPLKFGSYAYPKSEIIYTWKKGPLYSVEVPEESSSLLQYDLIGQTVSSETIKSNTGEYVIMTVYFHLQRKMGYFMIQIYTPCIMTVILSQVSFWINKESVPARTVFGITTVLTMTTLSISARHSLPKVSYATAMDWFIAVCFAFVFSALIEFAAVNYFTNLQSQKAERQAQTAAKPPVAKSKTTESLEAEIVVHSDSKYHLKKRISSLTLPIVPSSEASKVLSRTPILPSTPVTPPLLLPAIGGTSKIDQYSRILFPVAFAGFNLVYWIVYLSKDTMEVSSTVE
T1 sequence (P63079 26-473): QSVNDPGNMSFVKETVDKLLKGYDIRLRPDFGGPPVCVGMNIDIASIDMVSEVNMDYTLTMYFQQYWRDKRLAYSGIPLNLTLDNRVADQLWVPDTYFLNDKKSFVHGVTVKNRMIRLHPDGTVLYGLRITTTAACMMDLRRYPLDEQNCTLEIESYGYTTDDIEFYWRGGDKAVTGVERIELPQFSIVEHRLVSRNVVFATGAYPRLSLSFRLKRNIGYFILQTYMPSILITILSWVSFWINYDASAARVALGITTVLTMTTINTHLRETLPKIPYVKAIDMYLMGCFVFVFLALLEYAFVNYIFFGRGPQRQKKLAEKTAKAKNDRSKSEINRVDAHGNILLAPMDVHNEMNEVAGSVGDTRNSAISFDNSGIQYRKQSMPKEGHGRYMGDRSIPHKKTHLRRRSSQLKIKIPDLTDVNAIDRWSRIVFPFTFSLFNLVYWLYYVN
T1 sequence (P18508 39-466 partner): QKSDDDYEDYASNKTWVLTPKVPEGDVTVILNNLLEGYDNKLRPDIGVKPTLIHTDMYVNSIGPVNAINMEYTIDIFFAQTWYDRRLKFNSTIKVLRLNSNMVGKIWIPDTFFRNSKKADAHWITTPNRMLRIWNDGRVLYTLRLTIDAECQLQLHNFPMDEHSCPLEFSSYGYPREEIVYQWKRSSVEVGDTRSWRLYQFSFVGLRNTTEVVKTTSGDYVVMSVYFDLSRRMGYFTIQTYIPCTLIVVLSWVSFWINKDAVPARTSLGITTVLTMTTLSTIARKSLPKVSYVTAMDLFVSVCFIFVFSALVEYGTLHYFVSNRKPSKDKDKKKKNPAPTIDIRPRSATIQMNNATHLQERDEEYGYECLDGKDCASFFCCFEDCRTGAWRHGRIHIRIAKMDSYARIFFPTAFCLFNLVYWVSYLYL

Compound | α6 preference among α1,4,6β3δ receptors [1] | α6 preference among α1,4,6β3δ receptors ([1]; listed as compound 6) | % left after 1 hr. (HLM) [2] | stability in Human liver microsomes [2] | half-life at 10 μM [2] | Emax [3] | selectivity for α6β3γ2 over other αxβ3γ2 receptors [3] | selectivity for α6β3γ2 over other αxβ3γ2 receptors ([3]; listed as compound 6) | Half-life (min) (HLM) [2] | maximum efficacy compared to the lead compounds [3]
COc1ccc(-n2nc3c4ccc(OC)cc4[nH]cc-3c2=O)cc1 [Compound 6, 7-Methoxy-2-(4-methoxyphenyl)-2,5-dihydro-3H-pyrazolo[4,3-c]quinolin-3-one] | α6 preference | preferentially modulate the α6β3δ receptor | 86.1 ± 1.0% | 86% | 212 ± 25 min | 400 to 1000% | preferentially modulate GABA currents of α6β3γ2 receptors; also recorded: pronounced selectivity for the α6β3γ2 receptor | selectively modulates α6-containing receptors; also recorded: (efficacy-) selective for α6β3γ2 receptors |  | 
[2H]C([2H])([2H])Oc1ccc(-n2nc3c4ccc(OC)cc4[nH]cc-3c2=O)cc1 [DK-I-56-1, 7-Methoxy-2-(4-methoxy-d3-phenyl)-2,5-dihydro-3H-pyrazolo[4,3-c]quinolin-3-one] |  |  | 91.69 ± 0.09% |  |  |  |  |  | 520 ± 51 min | 
[2H]C([2H])([2H])Oc1ccc2c3nn(-c4ccc(OC)nc4)c(=O)c-3c[nH]c2c1 [DK-I-86-1, 7-Methoxy-d3-2-(6-methoxypyridin-3-yl)-2,5-dihydro-3H-pyrazolo[4,3-c]quinolin-3-one] |  |  | 92.3 ± 0.13% |  |  |  | preferentially modulates α6β3γ2 receptors; also recorded: selectivity was very good |  | 752.30 ± 261 min | lower
COc1cccc(-n2nc3c4cc(Cl)ccc4[nH]cc-3c2=O)c1 [LAU 159, 8-Chloro-2-(3-methoxyphenyl)-2,5-dihydro-3H-pyrazolo[4,3-c]quinolin-3-one] | preferentially modulate the α6β3δ receptor; also recorded: α6 preference |  | 81.44 ± 0.16% | ~80% | 207 ± 15 min | ~400% | preferentially modulate GABA currents of α6β3γ2 receptors; also recorded: pronounced selectivity for the α6β3γ2 receptor; also recorded: (efficacy-) selective for α6β3γ2 receptors |  |  | 
COc1ccc(-n2nc3c4ccc(Br)cc4[nH]cc-3c2=O)cc1 [LAU 463, 7-Bromo-2-(4-methoxyphenyl)-2,5-dihydro-3H-pyrazolo[4,3-c]quinolin-3-one] | α6 preference |  | 66.86 ± 0.13% |  | 104 ± 4 min | 400 to 1000% | preferentially modulate GABA currents of α6β3γ2 receptors; also recorded: pronounced selectivity for the α6β3γ2 receptor; also recorded: (efficacy-) selective for α6β3γ2 receptors |  |  | 
